The experiment addresses T1, SULT1A3 in HME(+) cells (Homo sapiens, UniProt P0DMM9).
T1 construct: HME cells were transfected with plasmid containing the coding region of either SULT1A3 or a negative control; expressed in transfected cells
Put plainly: Ex vivo inhibition of dopamine sulfate (DPS) synthesis in SULT1A3-transfected HME(+) cells. Format: cell-based. As to conditions: 100 μM DP, 24 h, parentheses 1 SD. As to the method:
A stable transfectant cell line was constructed to test the ability of CMP12 and CMP13 to suppress catecholamine sulfonation in cultured human cells. […] HME cells were transfected with plasmid containing the coding region of either SULT1A3 or a negative control ([14]) (see Experiment and Transfection protocol). Transfectant isolates were grown to near confluence and harvested, and cell extracts were prepared (see Experiment). SULT1A3 levels in the extracts were assessed by determining SULT activity per μg extract (see Experiment). Activity in extracts of the SULT1A3-positive transfectants ranged from 1 to 85 times the levels present in negative-control extracts. […] Consequently, a transfectant, 1A3(+) with extract activity 42 times that of the negative-control isolate, 1A3(-), was selected for further experiments.
To establish conditions for ex vivo inhibition studies, the DP concentration and time dependence of dopamine sulfate (DPS) synthesis by 1A3(+) cells were assessed. DP and its metabolites (DPS, 3-methoxytyramine [3-MT], 3,4-dihydroxyphenylacetic acid [DOPAC], and homovanillic acid [HVA]) are baseline separable using HPLC and can be quantitated optically at […] (see Experiment and Fig. S1). Only DP and DPS were detected in the cell media, and together, they constituted >95% of the DP initially added to the media. The DPS concentration in the 1A3(+) media at 24 h after DP addition is plotted as a function of DP concentration in Fig. 6B. As is evident, the dose-response curve is linear at concentrations as high as 200 μM DP.
Figure 6 HME(+)-cell DPS synthesis and inhibition. A, Time dependence of DPS formation. DP was added at 100 μM to the growth medium of 60 to 70% confluent HME(+)-cells, and the DPS concentration in the medium was determined at the indicated time intervals. B, DP-concentration dependence of DPS synthesis. The Y-axis indicates the concentration of DPS in the growth media 24 h after DP addition. The X-axis indicates the DP concentration added at t = 0 to the growth medium of 60 to 70% confluent HME(+)-cells. […] The levels of DP (red dots) and DPS (blue dots) were determined 24 h after DP addition. […] A–D, dopamine metabolites were separated and quantitated using HPLC (see Experiment); each data point represents the average of three independent determinations, and the sum of DP and DPS concentrations was ≥95% of the total added DP. […]
Transfectants are grown to 60 to 70% confluency at 37 °C in 12-well plates in the MEM containing neomycin (400 μg ml^−1). […] DP metabolite peaks are baseline separated and detected optically at 280 nm (see Fig. S1). Standard curves were used to quantitate each metabolite (Ɛ280 = 3.2 and 2.8 mM^-1 cm^-1 for DP and DPS, respectively). DPS was detected only in the media of cells that express SULT1A3. […]

T1 sequence (P0DMM9 whole entry): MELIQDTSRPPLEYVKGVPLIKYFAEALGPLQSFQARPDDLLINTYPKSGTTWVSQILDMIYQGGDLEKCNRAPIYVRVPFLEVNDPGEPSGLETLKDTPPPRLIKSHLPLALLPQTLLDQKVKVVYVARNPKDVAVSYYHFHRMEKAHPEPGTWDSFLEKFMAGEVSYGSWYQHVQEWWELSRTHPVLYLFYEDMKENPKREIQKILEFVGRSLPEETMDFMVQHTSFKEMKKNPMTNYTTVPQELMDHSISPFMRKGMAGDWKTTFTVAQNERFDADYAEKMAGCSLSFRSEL

For orientation: IC50 means the point on the concentration scale where inhibition reaches its midpoint. As for `CC(C)Cc1ccc2cc(CCC(N)=O)ccc2n1` [CMP12], the “% Inhibition at saturation” value is 84 (3) % and the IC50 turned out to be 260 nM.

In the case of `CC(C)Cc1ccc2cc(/C=C/C(N)=O)cnc2n1` [CMP13], the “% Inhibition at saturation” value is 95 (2) % and the IC50 turned out to be 12 nM.

The record behind these values is publication PMC7948405, “Small-molecule control of neurotransmitter sulfonation” (The Journal of Biological Chemistry, 2020).
